# From US6914045B2, “Glycopeptide antibiotics” (Wyeth Holdings Corporation, priority 2001, dated 2005)
# Legend:
# Test in all cases: in vitro antibacterial evaluation, MIC by broth dilution
# Type in all cases: cell-based
# Escherichia coli = settings: 18 hours at 35° C.
# Staphylococcus sp. = system: Staphylococcus sp.
# Experimental: (§1) Methods for in vitro Antibacterial Evaluation (Table 1)
# (§2) The minimum inhibitory concentration (MIC), the lowest concentration of the antibiotic which inhibits growth of the test organism, is determined by the broth dilution method using Muller-Hinton II […] (Baltimore Biological Laboratories) following the recommendations of the National Committee for Clinical Laboratory Standards [Methods for dilution antimicrobial susceptibility tests for bacteria that grow aerobically, approved standard M7-A2, National Committee for Clinical Laboratory Standards, Villanova, Pa.].
# (§3) An inoculum level of 5×10^5 CFU/mL, and a range of antibiotic concentrations (64-0.06 μg/mL) is used. […] The test organisms include a spectrum of Gram-positive bacteria comprised of Staphylococcus sp., Streptococcus sp. and Enterococcus sp. These organisms include recent clinical isolates that are resistant to methicillin, penicillin and/or vancomycin.
# Enterococcus sp. = settings: broth dilution, 18 hours at 35° C.
# Experimental: as §1, §2, §3
# Streptococcus sp. = settings: broth dilution, 18 hours at 35° C.
# Experimental: as §1, §2, §3
# [1] = strain ATCC 29213; broth dilution, 18 hours at 35° C.
# [2] = strain GC 1131; broth dilution, 18 hours at 35° C.
# [3] = strain GC 3051; broth dilution, 18 hours at 35° C.
# [4] = strain GC 3053; broth dilution, 18 hours at 35° C.
# [5] = strain GC 4541; broth dilution, 18 hours at 35° C.
# [6] = strain GC 4542; broth dilution, 18 hours at 35° C.
# [7] = strain GC 4544; broth dilution, 18 hours at 35° C.
# [8] = strain GC 4545; broth dilution, 18 hours at 35° C.
# [9] = inoculum 5×10^5 CFU/mL, strain ATCC 29212
# [10] = inoculum 5×10^5 CFU/mL, strain GC 2242
# [11] = inoculum 5×10^5 CFU/mL, strain GC 2243
# [12] = inoculum 5×10^5 CFU/mL, strain GC 2691
# [13] = inoculum 5×10^5 CFU/mL, strain GC 3059
# [14] = inoculum 5×10^5 CFU/mL, strain GC 4552
# [15] = inoculum 5×10^5 CFU/mL, strain GC 4553
# [16] = inoculum 5×10^5 CFU/mL, strain GC 4554
# [17] = inoculum 5×10^5 CFU/mL, strain GC 4556
# [18] = inoculum 5×10^5 CFU/mL, strain GC 4557
# [19] = inoculum 5×10^5 CFU/mL, strain GC 4558
# [20] = inoculum 5×10^5 CFU/mL, strain GC 6189
# [21] = inoculum 5×10^5 CFU/mL, strain ATCC 6301
# [22] = inoculum 5×10^5 CFU/mL, strain GC 1894
# [23] = inoculum 5×10^5 CFU/mL, strain GC 4563
# [24] = inoculum 5×10^5 CFU/mL, strain GC 4564
# [25] = inoculum 5×10^5 CFU/mL, strain GC 4565
# [26] = broth dilution, 18 hours at 35° C.
smiles,measurement,setting,value
CC(c1ccccc1)C1NC(=O)CNC(=O)C(CO)NC(=O)C(C(O)C2CNC(=N)N2C2OC(CO)C(O)C(O)C2O)NC(=O)C(C(O)C2CNC(=N)N2)NC(=O)C(Cc2ccc(OC3OC(CO)C(OC4OC5COC6(CC7CCC6(C)C7(C)C)OC5C(O)C4O)C(O)C3O)cc2)NC1=O (centres unmarked) [Example 215],MIC Escherichia coli (ATCC 25922),Escherichia coli,32 µg/mL
same,MIC Escherichia coli (GC 4559),Escherichia coli,32 µg/mL
same,MIC Escherichia coli (GC 4560),Escherichia coli,1 µg/mL
same,MIC Staphylococcus aureus (ATCC 29213),Staphylococcus sp.; [1],0.5 µg/mL
same,MIC Staphylococcus aureus (GC 1131),Staphylococcus sp.; [2],0.5 µg/mL
same,MIC Staphylococcus aureus (GC 3051),Staphylococcus sp.; [3],0.5 µg/mL
same,MIC Staphylococcus aureus (GC 3053),Staphylococcus sp.; [4],1 µg/mL
same,MIC Staphylococcus aureus (GC 4541),Staphylococcus sp.; [5],0.5 µg/mL
same,MIC Staphylococcus aureus (GC 4542),Staphylococcus sp.; [6],0.5 µg/mL
same,MIC Staphylococcus aureus-SMITH (GC 4543),"Staphylococcus sp.; strain GC 4543; broth dilution, 18 hours at 35° C.",<0.12 µg/mL
same,MIC Staphylococcus aureus (GC 4544),Staphylococcus sp.; [7],0.5 µg/mL
same,MIC Staphylococcus aureus (GC 4545),Staphylococcus sp.; [8],1 µg/mL
same,MIC Staphylococcus haemolyticus (GC 4546),"Staphylococcus sp.; strain GC 4546; broth dilution, 18 hours at 35° C.",0.5 µg/mL
same,MIC Coagulase Negative Staphylococcus (GC 4547),"Staphylococcus sp.; strain GC 4547; broth dilution, 18 hours at 35° C.",0.5 µg/mL
same,MIC Coagulase Negative Staphylococcus (GC 4548),"Staphylococcus sp.; strain GC 4548; broth dilution, 18 hours at 35° C.",0.5 µg/mL
same,MIC Coagulase Negative Staphylococcus (GC 4549),"Staphylococcus sp.; strain GC 4549; broth dilution, 18 hours at 35° C.",<0.12 µg/mL
same,MIC Coagulase Negative Staphylococcus (GC 4551),"Staphylococcus sp.; strain GC 4551; broth dilution, 18 hours at 35° C.",0.5 µg/mL
same,MIC Enterococcus avium (GC 4558),Enterococcus sp.,0.5 µg/mL
same,MIC Enterococcus faecalis (ATCC 29212),Enterococcus sp.,0.5 µg/mL
same,MIC Enterococcus faecalis (GC 2242),Enterococcus sp.,1 µg/mL
same,MIC Enterococcus faecalis (GC 2691),Enterococcus sp.,1 µg/mL
same,MIC Enterococcus faecalis (GC 3059),Enterococcus sp.,1 µg/mL
same,MIC Enterococcus faecalis (GC 4552),Enterococcus sp.,1 µg/mL
same,MIC Enterococcus faecalis (GC 4553),Enterococcus sp.,0.5 µg/mL
same,MIC Enterococcus faecalis (GC 4554),Enterococcus sp.,1 µg/mL
same,MIC Enterococcus faecalis (GC 6189),Enterococcus sp.,1 µg/mL
same,MIC Enterococcus faecium (GC 2243),Enterococcus sp.,0.5 µg/mL
same,MIC Enterococcus faecium (GC 4556),Enterococcus sp.,1 µg/mL
same,MIC Enterococcus faecium (GC 4557),Enterococcus sp.,0.5 µg/mL
same,MIC Enterococcus faecalis (ATCC 29212),Enterococcus sp.; [9],0.5 µg/mL
same,MIC Enterococcus faecalis (GC 2242),Enterococcus sp.; [10],1 µg/mL
same,MIC Enterococcus faecium (GC 2243),Enterococcus sp.; [11],0.5 µg/mL
same,MIC Enterococcus faecalis (GC 2691),Enterococcus sp.; [12],1 µg/mL
same,MIC Enterococcus faecalis (GC 3059),Enterococcus sp.; [13],1 µg/mL
same,MIC Enterococcus faecalis (GC 4552),Enterococcus sp.; [14],1 µg/mL
same,MIC Enterococcus faecalis (GC 4553),Enterococcus sp.; [15],0.5 µg/mL
same,MIC Enterococcus faecalis (GC 4554),Enterococcus sp.; [16],1 µg/mL
same,MIC Enterococcus faecium (GC 4556),Enterococcus sp.; [17],1 µg/mL
same,MIC Enterococcus faecium (GC 4557),Enterococcus sp.; [18],0.5 µg/mL
same,MIC Enterococcus avium (GC 4558),Enterococcus sp.; [19],0.5 µg/mL
same,MIC Enterococcus faecalis (GC 6189),Enterococcus sp.; [20],1 µg/mL
same,MIC Streptococcus agalactiae (GC 4564),Streptococcus sp.,<0.12 µg/mL
same,MIC Streptococcus pneumoniae (ATCC 6301),Streptococcus sp.,<0.12 µg/mL
same,MIC Streptococcus pneumoniae (GC 1894),Streptococcus sp.,<0.12 µg/mL
same,MIC Streptococcus pneumoniae (GC 4565),Streptococcus sp.,<0.12 µg/mL
same,MIC Streptococcus pyogenes (GC 4563),Streptococcus sp.,<0.12 µg/mL
same,MIC Streptococcus pneumoniae (ATCC 6301),Streptococcus sp.; [21],<0.12 µg/mL
same,MIC Streptococcus pneumoniae (GC 1894),Streptococcus sp.; [22],<0.12 µg/mL
same,MIC Streptococcus pyogenes (GC 4563),Streptococcus sp.; [23],<0.12 µg/mL
same,MIC Streptococcus agalactiae (GC 4564),Streptococcus sp.; [24],<0.12 µg/mL
same,MIC Streptococcus pneumoniae (GC 4565),Streptococcus sp.; [25],<0.12 µg/mL
CC(c1ccccc1)C1NC(=O)CNC(=O)C(CO)NC(=O)C(C(O)C2CN(Cc3ccc(C(F)(F)F)cc3)C(=N)N2C2OC(CO)C(O)C(O)C2O)NC(=O)C(C(O)C2CNC(=N)N2)NC(=O)C(Cc2ccc(OC3OC(CO)C(OC4OC5COC6(OC5C(O)C4O)C4CC5CC(C4)CC6C5)C(O)C3O)cc2)NC1=O (centres unmarked) [Example 226],MIC Escherichia coli (ATCC 25922),Escherichia coli,>128 µg/mL
same,MIC Escherichia coli (GC 4559),Escherichia coli,128 µg/mL
same,MIC Escherichia coli (GC 4560),Escherichia coli,4 µg/mL
same,MIC Coagulase Negative Staphylococcus (GC 4547),Staphylococcus sp.; [26],8 µg/mL
same,MIC Coagulase Negative Staphylococcus (GC 4548),Staphylococcus sp.; [26],8 µg/mL
same,MIC Coagulase Negative Staphylococcus (GC 4549),Staphylococcus sp.; [26],16 µg/mL
same,MIC Coagulase Negative Staphylococcus (GC 4551),Staphylococcus sp.; [26],8 µg/mL
same,MIC Coagulase Negative Staphylococcus (GC 6257),Staphylococcus sp.; [26],2 µg/mL
same,MIC Staphylococcus aureus-SMITH (GC 4543),Staphylococcus sp.; [26],8 µg/mL
same,MIC Staphylococcus haemolyticus (GC 4546),Staphylococcus sp.; [26],8 µg/mL
same,MIC Staphylococcus aureus-SMITH (GC 4543),"Staphylococcus sp.; broth dilution, 18 hours at 35° C.; strain GC 4543",8 µg/mL
same,MIC Staphylococcus haemolyticus (GC 4546),"Staphylococcus sp.; broth dilution, 18 hours at 35° C.; strain GC 4546",8 µg/mL
same,MIC Coagulase Negative Staphylococcus (GC 4547),"Staphylococcus sp.; broth dilution, 18 hours at 35° C.; strain GC 4547",8 µg/mL
same,MIC Coagulase Negative Staphylococcus (GC 4548),"Staphylococcus sp.; broth dilution, 18 hours at 35° C.; strain GC 4548",8 µg/mL
same,MIC Coagulase Negative Staphylococcus (GC 4549),"Staphylococcus sp.; broth dilution, 18 hours at 35° C.; strain GC 4549",16 µg/mL
same,MIC Coagulase Negative Staphylococcus (GC 4551),"Staphylococcus sp.; broth dilution, 18 hours at 35° C.; strain GC 4551",8 µg/mL
same,MIC Coagulase Negative Staphylococcus (GC 6257),"Staphylococcus sp.; broth dilution, 18 hours at 35° C.; strain GC 6257",2 µg/mL
same,MIC Staphylococcus aureus (ATCC 29213),Staphylococcus sp.; [1],16 µg/mL
same,MIC Staphylococcus aureus (GC 1131),Staphylococcus sp.; [2],16 µg/mL
same,MIC Staphylococcus aureus (GC 3051),Staphylococcus sp.; [3],16 µg/mL
same,MIC Staphylococcus aureus (GC 3053),Staphylococcus sp.; [4],16 µg/mL
same,MIC Staphylococcus aureus (GC 4541),Staphylococcus sp.; [5],8 µg/mL
same,MIC Staphylococcus aureus (GC 4542),Staphylococcus sp.; [6],16 µg/mL
same,MIC Staphylococcus aureus (GC 4544),Staphylococcus sp.; [7],16 µg/mL
same,MIC Staphylococcus aureus (GC 4545),Staphylococcus sp.; [8],16 µg/mL
same,MIC Enterococcus avium (GC 4558),Enterococcus sp.,8 µg/mL
same,MIC Enterococcus faecalis (ATCC 29212),Enterococcus sp.,32 µg/mL
same,MIC Enterococcus faecalis (GC 2242),Enterococcus sp.,16 µg/mL
same,MIC Enterococcus faecalis (GC 2691),Enterococcus sp.,32 µg/mL
same,MIC Enterococcus faecalis (GC 3059),Enterococcus sp.,32 µg/mL
same,MIC Enterococcus faecalis (GC 4552),Enterococcus sp.,32 µg/mL
same,MIC Enterococcus faecalis (GC 4553),Enterococcus sp.,16 µg/mL
same,MIC Enterococcus faecalis (GC 4554),Enterococcus sp.,32 µg/mL
same,MIC Enterococcus faecalis (GC 6189),Enterococcus sp.,32 µg/mL
same,MIC Enterococcus faecium (GC 2243),Enterococcus sp.,16 µg/mL
same,MIC Enterococcus faecium (GC 4556),Enterococcus sp.,32 µg/mL
same,MIC Enterococcus faecium (GC 4557),Enterococcus sp.,2 µg/mL
same,MIC Enterococcus faecalis (ATCC 29212),Enterococcus sp.; [9],32 µg/mL
same,MIC Enterococcus faecalis (GC 2242),Enterococcus sp.; [10],16 µg/mL
same,MIC Enterococcus faecium (GC 2243),Enterococcus sp.; [11],16 µg/mL
same,MIC Enterococcus faecalis (GC 2691),Enterococcus sp.; [12],32 µg/mL
same,MIC Enterococcus faecalis (GC 3059),Enterococcus sp.; [13],32 µg/mL
same,MIC Enterococcus faecalis (GC 4552),Enterococcus sp.; [14],32 µg/mL
same,MIC Enterococcus faecalis (GC 4553),Enterococcus sp.; [15],16 µg/mL
same,MIC Enterococcus faecalis (GC 4554),Enterococcus sp.; [16],32 µg/mL
same,MIC Enterococcus faecium (GC 4556),Enterococcus sp.; [17],32 µg/mL
same,MIC Enterococcus faecium (GC 4557),Enterococcus sp.; [18],2 µg/mL
same,MIC Enterococcus avium (GC 4558),Enterococcus sp.; [19],8 µg/mL
same,MIC Enterococcus faecalis (GC 6189),Enterococcus sp.; [20],32 µg/mL
same,MIC Streptococcus agalactiae (GC 4564),Streptococcus sp.,4 µg/mL
same,MIC Streptococcus pneumoniae (ATCC 6301),Streptococcus sp.,4 µg/mL
same,MIC Streptococcus pneumoniae (GC 1894),Streptococcus sp.,0.5 µg/mL
same,MIC Streptococcus pneumoniae (GC 4565),Streptococcus sp.,4 µg/mL
same,MIC Streptococcus pyogenes (GC 4563),Streptococcus sp.,2 µg/mL
same,MIC Streptococcus pneumoniae (ATCC 6301),Streptococcus sp.; [21],4 µg/mL
same,MIC Streptococcus pneumoniae (GC 1894),Streptococcus sp.; [22],0.5 µg/mL
same,MIC Streptococcus pyogenes (GC 4563),Streptococcus sp.; [23],2 µg/mL
same,MIC Streptococcus agalactiae (GC 4564),Streptococcus sp.; [24],4 µg/mL
same,MIC Streptococcus pneumoniae (GC 4565),Streptococcus sp.; [25],4 µg/mL
